Assay results: article PMC7573825 (Frontiers in Pharmacology, 2020)
Read-outs that look alike come from different tables or passages of the source.

What was measured:
most sensitive bacteria = system: most sensitive bacteria; parameters: method as in Bhongsatiern et al., 2015; Bruniera et al., 2015; settings: ref Bhongsatiern et al., 2015, Bruniera et al.; cited from earlier work
[1] = parameters: method as in 3 sources, one per row (each row's own in cited_ref): ref Adane et al., 2015; Lin et al., 2016 ||| ref Ji et al., 2018 ||| ref Lin et al., 2019; settings: ref Adane et al., 2015, Lin et al., 2016, cited from earlier work
[2] = Population pharmacokinetic modeling (NONMEM, one-compartment) of intravenous vancomycin from TDM trough plasma concentrations in kidney transplant recipients; settings: for Typical value of V / Typical value of CL: intravenous vancomycin, 56 adult kidney transplant recipients
Procedure: All these patients adopted routine therapeutic drug monitoring. The transplant surgeries were performed between March 8 and June 21 in 2017. […] The glomerular filtration rate (GFR) was estimated from the sCr according to the published formula [GFR (ml min^-1): GFR = 2.104*sCr(μM) - 1.154*age - 1.154*(0.742 for female)*1.233(correction for Chinese)]
Other concomitantly used drugs, such as prednisone, mycophenolate mofetil, cyclosporine, and tacrolimus were administered orally or intravenously once or twice a day, and their usages and doses were based on clinical necessity and safety.
The venous blood was centrifuged at 1,000 g for 4 min and a volume of 100 ml supernatant plasma was mixed with 100 ml of 5% perchloric acid solution. The mixture was fully vortex blended and then centrifuged at 14,000 g for 5 min. […] AHC-C18 column (250 mm × 4.6 mm, 5 μm; ShimadzuCo., Japan), a precolumn (10 mm × 4 mm, 5 μm; ShimadzuCo.), and a PDA detector (ShimadzuCo.) were used in the workstation. The mobile phase was acetonitrile in 0.01 M KH2PO4 solution (7:93 in volume), the flow rate was 0.5 ml min^-1, the column temperature was 30°C, and the detection wavelength was 236 nm. […] After using the same parallel method for sample preparation as mentioned above, the standard samples were simultaneously injected with the samples for testing.
Data processing and pharmacokinetic analysis were carried out with the nonlinear mixed-effects model program (NONMEM®, Version 7.4; Icon Inc, PA, USA), compiled with GFortran (Version 4.9.2; http://www.gfortran.org). The output was explored by the R package (Version 3.3.1; http://www.r-project.org) and Xpose (Version 4.5.3; http://xpose.sourceforge.net). The first-order conditional estimation method with η-ε interaction (FOCE-I) was used throughout the model-building procedure.
First, we established the base compartment model. For the statistical modeling, exponential model was used as the inter-individual variation model:
For the residual variation modeling, additive, proportional, and mixed models were applied. The additive and proportional mixed model is as follows:
In the forward model building step, the covariates were assessed for their suitability depending on the changes in the objective function values (OFV) and the inter-individual variations and residual variations. Taking an example with df = 1, when the decrease of OFV is more than 3.84 (P < 0.05, df = 1), the introduced factor can be considered as a significant covariate for the parameter model. During the backward analysis, a covariate was removed from the model every time, except when the OFV value increased by more than 6.63 units (P < 0.01, df = 1).
For the effects of continuous variables on pharmacokinetic parameters, linear, exponential, and power function models were used. The linear function model was:

CN[C@H](CC(C)C)C(=O)N[C@H]1C(=O)N[C@@H](CC(N)=O)C(=O)N[C@H]2C(=O)N[C@H]3C(=O)N[C@H](C(=O)N[C@H](C(=O)O)c4cc(O)cc(O)c4-c4cc3ccc4O)[C@H](O)c3ccc(c(Cl)c3)Oc3cc2cc(c3O[C@@H]2O[C@H](CO)[C@@H](O)[C@H](O)[C@H]2O[C@H]2C[C@](C)(N)[C@H](O)[C@H](C)O2)Oc2ccc(cc2Cl)[C@H]1O [vancomycin]
minimum inhibitory concentration (MIC) (most sensitive bacteria): 0.1 to 2 µg/mL | Vancomycin clearance ([1]; adult Chinese patients with post-craniotomy meningitis, typical creatinine clearance rate 104.7 ml/min): 7.56 L/h | Vancomycin clearance ([1]; patients with augmented renal clearance): 8.52 L/h | Typical value of V ([2]; base model, one-compartment, 195 plasma Cmin): 45.5 L | Typical value of CL ([2]; base model, one-compartment, 195 plasma Cmin, HPLC, FOCE-I): 1.84 L/h | Typical value of CL ([2]; final model, CL=2.08×[(WT/59.95)^1.07]×[(GFR/36.67)^0.698], 195 plasma Cmin): 2.08 L/h | Typical value of V ([2]; final model, V=63.2×[(WT/59.95)^0.934]): 63.2 L | Influential factor for WT on V (θ3) ([2]; final model, power function exponent): 0.934
